Test results published in US20090227680A1, “Amino Acid Derivatives” (Pfizer, Inc., priority 2005, published 2009).
Counter-ions that a name gives are not always drawn.

The compounds below were run against T1, α2δ subunit derived from porcine brain tissue (Sus scrofa, UniProt A0A287BIN3) (assay: radioligand binding assay using [3H]gabapentin and the α2δ subunit). Conditions: [3H]gabapentin binding.
T1 construct: the α2δ subunit derived from porcine brain tissue; from tissue; host or cells: porcine brain tissue
T1 sequence (A0A287BIN3 25-1109): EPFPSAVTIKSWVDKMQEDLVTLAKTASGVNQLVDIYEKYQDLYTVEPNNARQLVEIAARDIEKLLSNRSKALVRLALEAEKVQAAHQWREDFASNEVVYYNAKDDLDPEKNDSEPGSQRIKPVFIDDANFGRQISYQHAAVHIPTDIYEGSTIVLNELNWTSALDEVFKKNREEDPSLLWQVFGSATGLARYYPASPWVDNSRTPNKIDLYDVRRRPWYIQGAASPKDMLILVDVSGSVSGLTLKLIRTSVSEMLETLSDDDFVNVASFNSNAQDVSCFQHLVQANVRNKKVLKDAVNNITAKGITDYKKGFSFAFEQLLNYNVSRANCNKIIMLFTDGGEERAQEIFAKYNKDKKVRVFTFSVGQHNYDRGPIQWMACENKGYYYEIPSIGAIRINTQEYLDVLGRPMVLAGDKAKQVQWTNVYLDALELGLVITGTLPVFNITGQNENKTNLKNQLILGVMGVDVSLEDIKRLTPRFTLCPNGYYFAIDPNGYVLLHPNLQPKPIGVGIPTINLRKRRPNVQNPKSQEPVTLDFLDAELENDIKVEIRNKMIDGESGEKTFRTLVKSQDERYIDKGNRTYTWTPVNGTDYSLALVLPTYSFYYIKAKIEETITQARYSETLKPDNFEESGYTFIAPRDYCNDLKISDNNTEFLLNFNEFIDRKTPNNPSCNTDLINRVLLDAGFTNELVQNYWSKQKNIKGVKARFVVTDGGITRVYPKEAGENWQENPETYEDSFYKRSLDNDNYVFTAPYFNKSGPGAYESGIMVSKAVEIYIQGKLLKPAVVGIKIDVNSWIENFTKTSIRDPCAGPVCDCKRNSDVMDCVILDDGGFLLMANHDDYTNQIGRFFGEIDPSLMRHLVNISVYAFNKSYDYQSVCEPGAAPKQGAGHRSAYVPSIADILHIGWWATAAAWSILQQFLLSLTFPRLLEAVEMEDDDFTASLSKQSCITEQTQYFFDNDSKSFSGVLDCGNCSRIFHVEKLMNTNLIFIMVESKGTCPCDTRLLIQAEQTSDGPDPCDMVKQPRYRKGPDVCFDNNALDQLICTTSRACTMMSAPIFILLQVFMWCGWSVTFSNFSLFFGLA
Text: The biological activity of the alpha-2-delta ligands of the invention may be measured in a radioligand binding assay using [^3H]gabapentin and the α2δ subunit derived from porcine brain tissue (Gee N. S., Brown J. P., Dissanayake V. U. K., Offord J., Thurlow R., Woodruff G. N., J. Biol. Chem., 1996; 271:5768-5776). Results may be expressed in terms of μM or nM α2δ binding affinity.

Point of comparison: `CCCc1cccc(O[C@@H](CN)C(=O)O)c1` [Example 5, (2S)-3-Amino-2-(3-propylphenoxy)propanoic acid hydrochloride], IC50 114 nM. Against it:
- NC[C@H](Oc1cccc(Cl)c1)C(=O)O [Example 2] — within 1.5-fold, 91 nM
- COc1ccc(Cl)cc1O[C@@H](CN)C(=O)O [Example 4] — 9.5-fold lower, 12 nM
- NC[C@H](Oc1ccccc1Cl)C(=O)O [Example 3] — within 1.5-fold, 124 nM
- NC[C@H](Oc1cc(Cl)ccc1Cl)C(=O)O [Example 1, (2S)-3-Amino-2-(2,5-dichlorophenoxy)propanoic acid hydrochloride] — 13-fold lower, 9 nM
